Tests used:
large crabgrass = experiment: Test B pre-/postemergence herbicide test; format: in vivo, Digitaria sanguinalis
Method in brief: (§1)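 Pre: seeds sown, then sprayed. Post: 1–4-leaf plants (2–18 cm) sprayed at the same time. Paddy: flooded, treated at 2-leaf stage. Formulation: non-phytotoxic solvent with surfactant. Greenhouse 13–15 days; visual 0–100 score relative to controls.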

corn = experiment: Test B pre-/postemergence herbicide test; format: in vivo, Zea mays
Method in brief: as §1

velvetleaf = experiment: Test B pre-/postemergence herbicide test; format: in vivo, Abutilon theophrasti
Method in brief: as §1

ducksalad [1] = experiment: Test C flooded paddy test; format: in vivo, Heteranthera limosa
barnyardgrass [2] = experiment: Test B pre-/postemergence herbicide test; format: in vivo, Echinochloa crus-galli
Method in brief: (§2)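 Visual rating, 0 (no effect) to 100 (complete control), versus untreated controls after 13–15 d in greenhouse. Pre- and postemergence applications (postemergence plants 2–18 cm, 1–4 leaves); flooded paddy arm at 2-leaf stage. Compounds in non-phytotoxic solvent plus surfactant.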

barnyardgrass [3] = experiment: Test B flooded paddy test; format: in vivo, Echinochloa crus-galli; settings: 1000 g ai/ha, visual rating, scale 0 to 100 (0 no effect, 100 complete control), 13 to 15 days
Method in brief: (§3)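 Visual ratings, 0 (no effect) to 100 (complete control), made versus controls after 13–15 d greenhouse. Paddy plants treated at 2-leaf stage; postemergence plants at 1- to 4-leaf stage, 2–18 cm tall.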

wild oat = experiment: Test B postemergence herbicide test; format: in vivo, Avena fatua; settings: scale 0 (no effect) to 100 (complete control)
Method in brief: (§4)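 Treated at 2-leaf (paddy) or 1–4-leaf, 2–18 cm (postemergence); greenhouse 13–15 d; visual score vs control, 0 none to 100 complete control; dash = not tested.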

blackgrass = experiment: Test B postemergence herbicide test; format: in vivo, Alopecurus myosuroides; settings: scale 0 (no effect) to 100 (complete control)
Method in brief: as §3

lambsquarters = experiment: Test B pre-/postemergence herbicide test; format: in vivo, Chenopodium album
Method in brief: as §1

giant foxtail = experiment: Test B pre-/postemergence herbicide test; format: in vivo, Setaria faberi
Method in brief: as §1

rice [4] = experiment: Test B pre-/postemergence herbicide test; format: in vivo, Oryza sativa; settings: preemergence
Method in brief: as §1

wheat = experiment: Test B postemergence herbicide test; format: in vivo, Triticum aestivum; parameters: key to Wheat plant response rating: 0 = no effect, 100 = complete control; settings: scale 0 (no effect) to 100 (complete control)
Method in brief: as §4

rice [5] = experiment: Test C flooded paddy test; format: in vivo, Oryza sativa
Method in brief: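 Postemergence sprays applied to plants 2 to 18 cm tall (1- to 4-leaf stage); paddy species grown to 2-leaf stage under flooding. After 12 to 14 days in greenhouse, visual rating versus untreated controls on 0–100 scale (0 no effect, 100 complete control).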

Surinam grass = experiment: Test B pre-/postemergence herbicide test; format: in vivo, Urochloa decumbens
Method in brief: as §1

[6] = test system: small flower umbrella sedge; experiment: Test B flooded paddy test; format: in vivo, Cyperus difformis; settings: 1000 g ai/ha, visual rating, scale 0 to 100 (0 no effect, 100 complete control), 13 to 15 days
Method in brief: as §3

ducksalad [7] = experiment: Test B flooded paddy test; format: in vivo, Heteranthera limosa; settings: 1000 g ai/ha, visual rating, scale 0 to 100 (0 no effect, 100 complete control), 13 to 15 days
Method in brief: as §3

barnyardgrass [8] = experiment: Test C flooded paddy test; format: in vivo, Echinochloa crus-galli
Method in brief: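 After a postemergence application at 1 to 4 leaves (plants 2–18 cm high), or at 2 leaves for barnyardgrass in flooded paddy, plants stayed in the greenhouse for 12 to 14 days. Damage was then judged visually relative to control plants, with 100 indicating complete control.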

pigweed = experiment: Test B pre-/postemergence herbicide test; format: in vivo, Amaranthus retroflexus
Method in brief: as §1

morningglory = experiment: Test B pre-/postemergence herbicide test; format: in vivo, Ipomoea coccinea
Method in brief: as §2

cocklebur = experiment: Test B pre-/postemergence herbicide test; format: in vivo, Xanthium strumarium
Method in brief: as §2

rice [9] = experiment: Test B flooded paddy test; format: in vivo, Oryza sativa; settings: 1000 g ai/ha, visual rating, scale 0 to 100 (0 no effect, 100 complete control), 13 to 15 days
Method in brief: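 Plants grow to 1- to 4-leaf stage (2–18 cm) for postemergence spraying, or to 2-leaf stage for the paddy test. Formulated compound is applied. Greenhouse holding lasts 13–15 days. Response is scored visually relative to controls, 0 no effect to 100 complete control; a dash means no result.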

[10] = test system: smallflower umbrella sedge; experiment: Test C flooded paddy test; format: in vivo, Cyperus difformis
[11] = 500 g ai/ha, visual rating 0-100, 0 no effect, 100 complete control, preemergence
[12] = Postemergence, 500 g ai/ha, visual rating after 13 to 15 days, scale 0 (no effect) to 100 (complete control)
[13] = postemergence, 125 g ai/ha, visual rating, scale 0 (no effect) to 100 (complete control)
[14] = preemergence, 125 g ai/ha, 0 to 100 scale, 0 is no effect, 100 is complete control
[15] = 62 g ai/ha, scale 0 to 100 (0 no effect, 100 complete control)
[16] = 125 g ai/ha, scale of 0 to 100, 0 is no effect, 100 is complete control
[17] = 250 g ai/ha, scale of 0 to 100, 0 is no effect, 100 is complete control
[18] = 500 g ai/ha, visual rating after 12 to 14 days, scale 0 to 100 (0 no effect, 100 complete control)
[19] = Postemergence, 500 g ai/ha, visual rating after 13 to 15 days
[20] = postemergence, 125 g ai/ha, visual rating

CCn1nc(C(C)(C)C)cc1C(=O)Nc1ccc(OC)c(C(=O)OC(C)C)c1 [Compound 101]
Plant response rating, Crabgrass, Large (large crabgrass; [11]): 90 | Plant response rating, Crabgrass, Large (large crabgrass; [12]): 20 | Crabgrass, Large plant response rating (large crabgrass; [13]): 10 | Plant response rating, Crabgrass, Large (large crabgrass; [14]): 50 | Plant response rating, Corn (corn; [11]): 40 | Plant response rating, Corn (corn; [12]): 40 | Corn plant response rating (corn; [13]): 10 | Plant response rating, Corn (corn; [14]): 20 | Plant response rating, Velvetleaf (velvetleaf; [11]): 50 | Plant response rating, Velvetleaf (velvetleaf; [12]): 30 | Velvetleaf plant response rating (velvetleaf; [13]): 20 | Plant response rating, Velvetleaf (velvetleaf; [14]): 20 | Ducksalad plant response rating (ducksalad [1]; [15]): 0 | Ducksalad plant response rating (ducksalad [1]; [16]): 0 | Ducksalad plant response rating (ducksalad [1]; [17]): 40 | Plant response rating, Ducksalad (ducksalad [1]; [18]): 75 | Plant response rating, Barnyardgrass (barnyardgrass [2]; [11]): 70 | Plant response rating, Barnyardgrass (barnyardgrass [2]; [12]): 20 | Barnyardgrass plant response rating (barnyardgrass [2]; [13]): 10 | Plant response rating, Barnyardgrass (barnyardgrass [2]; [14]): 40 | Barnyardgrass plant response rating (barnyardgrass [3]): 70 | Plant response rating, Oat, Wild (wild oat; [19]): 50 | Oat, Wild plant response rating (wild oat; [20]): 30 | Plant response rating, Blackgrass (blackgrass; [19]): 40 | Blackgrass plant response rating (blackgrass; [20]): 20 | Plant response rating, Lambsquarters (lambsquarters; [11]): 100 | Plant response rating, Lambsquarters (lambsquarters; [12]): 90 | Lambsquarters plant response rating (lambsquarters; [13]): 80 | Plant response rating, Lambsquarters (lambsquarters; [14]): 100 | Plant response rating, Foxtail, Giant (giant foxtail; [11]): 60 | Plant response rating, Foxtail, Giant (giant foxtail; [12]): 30 | Foxtail, Giant plant response rating (giant foxtail; [13]): 20 | Plant response rating, Foxtail, Giant (giant foxtail; [14]): 20 | Plant response rating, Rice (rice [4]; 500 g ai/ha, visual rating 0-100, 0 no effect, 100 complete control): 40 | Plant response rating, Rice (rice [4]; 125 g ai/ha, 0 to 100 scale, 0 is no effect, 100 is complete control): 30 | Plant response rating, Wheat (wheat; [19]): 20 | Wheat plant response rating (wheat; [20]): 10 | Rice plant response rating (rice [5]; [15]): 0 | Rice plant response rating (rice [5]; [16]): 0 | Rice plant response rating (rice [5]; [17]): 0 | Plant response rating, Rice (rice [5]; [18]): 25 | Plant response rating, Surinam Grass (Surinam grass; [11]): 30 | Plant response rating, Surinam Grass (Surinam grass; [12]): 20 | Surinam Grass plant response rating (Surinam grass; [13]): 10 | Plant response rating, Surinam Grass (Surinam grass; [14]): 10 | Sedge, Umbrella plant response rating [6]: 80 | Ducksalad plant response rating (ducksalad [7]): 90 | Barnyardgrass plant response rating (barnyardgrass [8]; [15]): 0 | Barnyardgrass plant response rating (barnyardgrass [8]; [16]): 20 | Barnyardgrass plant response rating (barnyardgrass [8]; [17]): 30 | Plant response rating, Barnyardgrass (barnyardgrass [8]; [18]): 50 | Plant response rating, Pigweed (pigweed; [11]): 100 | Plant response rating, Pigweed (pigweed; [12]): 90 | Pigweed plant response rating (pigweed; [13]): 80 | Plant response rating, Pigweed (pigweed; [14]): 100 | Plant response rating, Morningglory (morningglory; [11]): 10 | Plant response rating, Morningglory (morningglory; [12]): 10 | Morningglory plant response rating (morningglory; [13]): 10 | Plant response rating, Morningglory (morningglory; [14]): 10 | Plant response rating, Cocklebur (cocklebur; [11]): 90 | Plant response rating, Cocklebur (cocklebur; [12]): 80 | Cocklebur plant response rating (cocklebur; [13]): 20 | Plant response rating, Cocklebur (cocklebur; [14]): 0 | Rice plant response rating (rice [9]): 80 | Sedge, Umbrella plant response rating [10, 15]: 20 | Sedge, Umbrella plant response rating [10, 16]: 75 | Sedge, Umbrella plant response rating [10, 17]: 80 | Plant response rating, Sedge, Umbrella [10, 18]: 90

From patent US20060069132A1, “Azolecarboxamide herbicides” (priority 2004, published 2006)
